From paper PMC6278453, “Effects of Osthol Isolated from Cnidium monnieri Fruit on Urate Transporter 1” (Molecules, 2018)

Legend:
Format in all cases: cell-based
[1] = target: T1, urate transporter 1 (URAT1) (Homo sapiens, UniProt Q96S37); assay: radiolabelled uptake, […], Lineweaver-Burk plot
T1 construct: gene SLC22A12; human URAT1 cDNA in pCMV-SPORT6, transiently transfected into HEK293/PDZK1 cells
T1 sequence (Q96S37 1-553): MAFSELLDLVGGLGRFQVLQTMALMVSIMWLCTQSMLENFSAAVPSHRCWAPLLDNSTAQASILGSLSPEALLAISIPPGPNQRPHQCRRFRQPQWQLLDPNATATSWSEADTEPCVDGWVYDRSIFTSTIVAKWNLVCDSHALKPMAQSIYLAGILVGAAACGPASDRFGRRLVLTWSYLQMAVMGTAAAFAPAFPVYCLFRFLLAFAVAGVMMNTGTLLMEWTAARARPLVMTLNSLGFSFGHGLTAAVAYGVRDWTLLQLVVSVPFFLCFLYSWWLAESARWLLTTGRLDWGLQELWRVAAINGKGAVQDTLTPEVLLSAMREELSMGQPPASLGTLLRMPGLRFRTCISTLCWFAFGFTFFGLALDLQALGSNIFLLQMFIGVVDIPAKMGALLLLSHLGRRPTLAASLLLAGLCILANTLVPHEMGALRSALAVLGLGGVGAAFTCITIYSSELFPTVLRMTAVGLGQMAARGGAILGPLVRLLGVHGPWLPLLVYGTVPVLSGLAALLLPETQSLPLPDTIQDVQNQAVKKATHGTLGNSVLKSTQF

[2] = target: T1, urate transporter 1 (URAT1); assay: [[…]-14C]uric acid uptake in URAT1-transfected HEK293/PDZK1 cells, mock-subtracted; Lineweaver-Burk kinetics
[3] = target: T1, urate transporter 1 (URAT1); assay: [[…]-14C]uric acid uptake in URAT1-transfected HEK293/PDZK1 cells, single concentration […]; conditions: read-out: Urate Uptake (% of Control)

For `O=c1[nH]c(=O)c2[nH]c(=O)[nH]c2[nH]1` [uric acid], the “radiolabelled uptake, 25-200 μM, Lineweaver-Burk plot” value [1] was “The uptakes of uric acid into the cells (V) were measured, and a Lineweaver–Burk plot was made”.
With `COc1ccc2ccc(=O)oc2c1CC=C(C)C` [compound 1, osthol] the IC50 [2] was 78.8 µM.
`CC(C)=CCc1c(O)ccc2ccc(=O)oc12` [osthenol] was tested, and the remaining activity at 100 µM [3] was 31 ± 4%.
